Test results published in US12686657B2, “Anti-inflammatory carboxamide derivatives” (BIOMEDCODE HELLAS SA, priority 2021, dated 2026).
Where two headings read alike, the source gives them in different places.

Tests used:
Format in all cases: cell-based, mice
[1] = tested on: hTNF-activated wt SFs; experiment: Legendplex pro-inflammatory chemokine panel on hTNF-activated wt synovial fibroblasts; conditions: 10 ng/ml hTNF
Method: (§1) SFs were isolated as previously described by Armaka et al., 2009, from the ankle joints of hTNFtg or CBA/C57BL6 wild type (wt) littermates. Briefly, ankle joints were digested with Collagenase IV (Sigma Aldrich, C5138) for 45 minutes at a 37° C. shaking waterbath and after 5 days in culture at 37° C. and 5% CO2, a depletion of CD45+ lineage cells was performed using a Biotin anti-mouse CD45 Antibody (Biolegend, 103104) and Dynabeads™ Biotin Binder (ThermoFisher 11047), according to the manufacturer's protocol. After 10 days in culture, SFs were seeded overnight (O/N) at a concentration of 2×10^4 cells/well in a 96 well plate in 1×DMEM, supplemented with 100 U/ml Penicillin Streptomycin (P/S) and 10% Fetal Bovine Serum (FBS). The next day the cells were synchronized by starvation that included their O/N plating in low serum medium (0.5% FBS). Following the O/N starvation, the hTNFg and the WT SFs were treated with different concentrations of the experimental compounds. The SFs were at the same time activated with 10 ng/ml hTNF (Peprotech, 300-01A). 48 h following the treatment the cell culture supernatants were collected and analyzed by ELISA (R&S Systems, Duoset, DY478 and DY760) according to the manufacturer's protocol, for the detection of CCL5/Rantes and CCL20/Mip3, two known inflammatory chemokines. The IC50 values were determined as the concentration of the compounds required to reduce the levels of secreted CCL5 and CCL20 by 50%.
The supernatants of the SFs were also analyzed using the Mouse pro-inflammatory chemokine panel from Legendplex™ (Biolegend, 740007), according to manufacturer's instructions, for the simultaneous detection of 13 Mouse chemokines.
The anti-inflammatory potential of the test compounds 51, 52, 53, E and F on SFs was also assessed using the Mouse pro-inflammatory chemokine panel from Legendplex that allows the simultaneous detection of 13 Mouse chemokines. The effect of compound 51 on SFs was assessed at a dose of 25 μM, while the effect of the test compounds 52, 53, E and F was assessed at a dose of 10 μM. Numbers represent percentages of the chemokine levels secreted from the treated SFs compared to 100% levels of the chemokines detected in the untreated cells (i.e. either hTNFTg SFs or hTNF-activated wt SFs).
Table 9 summarizes the effect of the test compounds 51, 52 and 53, E and F on the inflammatory chemokines secreted from activated SFs. WT SFs were stimulated with 10 ng/ml hTNF.

[2] = tested on: hTNFtg SFs; experiment: CCL5 and CCL20 ELISA on hTNFtg synovial fibroblasts; conditions: Mus musculus, Fibroblast; for activity at 10 µM: compound 10 μM; for activity at 10 µM / activity at 50 µM / activity at 25 µM: 48 h; for activity at 50 µM: compound 50 μM; for activity at 25 µM: compound 25 μM
Method: (§2) Primary SFs were derived from a) human TNF transgenic (hTNFTg) mice (Keffer et al., 1991) as well as from b) CBA/C57BL6 wild type mice.
hTNFtg mice overexpress human TNF, resulting in the spontaneous development of arthritis.
as §1
(§3) Table 7 summarizes the reduction of CCL5 and CCL20 levels achieved with the test compounds of the invention. Data are presented as percentages of the chemokine levels detected in treated cells compared to 100% levels of the chemokines detected in the untreated cells.
(§4) Table 8 summarizes the values of IC50 and toxicity for the test compounds of the invention. Dose response curves regarding the WT SFs were produced with 10 ng/ml hTNF stimulation for all compounds, with the exception of the compounds E and F, where WT cells were induced using hTNF at 1 ng/ml: […]

[3] = tested on: hTNF-activated wt SFs; experiment: CCL5 and CCL20 ELISA on hTNF-activated wild type synovial fibroblasts
Source text: as §2
By testing the compounds in a) and b) we accessed their effect on the activated SFs phenotype caused by both the endogenous hTNF upregulation and the exogenous hTNF administration. In this way it was confirm the ability of the compounds of the invention to act in the TNF pathway directly downstream of TNF.
as §1
In order to determine the efficiency of the compounds of the invention, the same protocol was repeated with some minor modifications. Mainly, the concentration of hTNF was 10-fold reduced, i.e., adjusted to 1 ng/ml, and the SFs were seeded overnight at a concentration of 10^4 cells/well.
as §3, §4

[4] = read-out: CCL5 hTNFtg, percentage of level in untreated cells
[5] = read-out: CCL20 hTNFtg, percentage of level in untreated cells
[6] = read-out: IC50 (μM) CCL5 hTNFtg
[7] = read-out: IC50 (μM) CCL20 hTNFtg
[8] = 1 ng/mL hTNF, compound 10 μM, 48 h
[9] = 1 ng/mL hTNF, compound 50 μM, 48 h
[10] = 10 ng/mL hTNF, compound 10 μM, 48 h
[11] = 10 ng/mL hTNF, compound 50 μM, 48 h
[12] = Mus musculus, Fibroblast, 10 ng/ml hTNF stimulation, read-out: IC50 (μM) CCL5 WT
[13] = Mus musculus, Fibroblast, 10 ng/ml hTNF stimulation, read-out: IC50 (μM) CCL20 WT
[14] = 1 ng/mL hTNF, compound 25 μM, 48 h
[15] = 10 ng/mL hTNF, compound 25 μM, 48 h
[16] = Mus musculus, Fibroblast, hTNF at 1 ng/ml, read-out: IC50 (μM) CCL5 WT
[17] = Mus musculus, Fibroblast, hTNF at 1 ng/ml, read-out: IC50 (μM) CCL20 WT

Row | SMILES | activity at 10 µM [2, 4] | activity at 10 µM [2, 5] | activity at 50 µM [2, 4] | activity at 50 µM [2, 5] | IC50 [2, 6] | IC50 [2, 7] | CCL5 WT, percentage of level in untreated cells [3, 8] | CCL20 WT, percentage of level in untreated cells [3, 8] | CCL5 WT, percentage of level in untreated cells [3, 9] | CCL20 WT, percentage of level in untreated cells [3, 9] | CCL5 WT, percentage of level in untreated cells [3, 10] | CCL20 WT, percentage of level in untreated cells [3, 10] | CCL5 WT, percentage of level in untreated cells [3, 11] | CCL20 WT, percentage of level in untreated cells [3, 11] | IC50 [3, 12] | IC50 [3, 13] | EOTAXIN WT, percentage of level in untreated cells ([1]; compound 10 μM) | KC WT, percentage of level in untreated cells ([1]; compound 10 μM) | LIX WT, percentage of level in untreated cells ([1]; compound 10 μM) | MCP1 WT, percentage of level in untreated cells ([1]; compound 10 μM) | further results
1 | COc1cc(N)c(Cl)cc1C(=O)NCC1(c2ccc(Cl)cc2)CCCCC1 [Compound 51, 4-amino-5-chloro-N-((1-(4-chlorophenyl)cyclohexyl)methyl)-2-methoxybenzamide] | 46% | 16% | 47% | 13% | 2.6 µM | 1 µM | 54% | 63% | 20% | 35% | 67% | 14% | 39% | 5% | 10.4 µM | 3 µM | – | – | – | – | EOTAXIN WT, percentage of level in untreated cells ([1]; compound 25 μM): 7%; KC WT, percentage of level in untreated cells ([1]; compound 25 μM): 41%; LIX WT, percentage of level in untreated cells ([1]; compound 25 μM): 3%; MCP1 WT, percentage of level in untreated cells ([1]; compound 25 μM): 59%
2 | COc1cc(N)c(Cl)cc1C(=O)NCC1(c2ccc(Cl)cc2)CCCCCC1 [Compound 52, 4-amino-5-chloro-N-((1-(4-chlorophenyl)cycloheptyl)methyl)-2-methoxybenzamide] | 50% | 67% | 29% | 48% | 4.2 µM | 15 µM | 48% | 45% | 22% | – | 27% | 15% | 14% | – | 1.4 µM | 1.5 µM | 26% | 34% | 23% | 40% | activity at 50 µM ([3]; Mus musculus, Fibroblast, 48 h, 1 ng/mL hTNF, compound 50 μM, 48 h, read-out: CCL20 WT, percentage of level in untreated cells): 17%
3 | COc1cc(N)c(Cl)cc1C(=O)NCC1(Nc2ccc(Cl)cc2)CCCCCC1 [Compound 53, 4-amino-5-chloro-N-((1-((4-chlorophenyl)amino)cycloheptyl)methyl)-2-methoxybenzamide] | 40% | 22% | 34% | 22% | 2.3 µM | 3.2 µM | 16% | 26% | 8% | 9% | 35% | 15% | 26% | 8% | 2.9 µM | 2.3 µM | 59% | 68% | 24% | 57% | –
4 | COc1cc(N)c(Cl)cc1C(=O)NCC1(Nc2ccc(F)cc2Cl)CCCCCC1 [E, 4-amino-5-chloro-N-((1-((2-chloro-4-fluorophenyl)amino)cycloheptyl)methyl)-2-methoxybenzamide] | 8.2% | 14% | – | – | 1.69 µM | 4.07 µM | 0% | 2% | – | – | 13% | 5% | – | – | – | – | – | – | – | – | activity at 25 µM [2, 4]: 5%; activity at 25 µM [2, 5]: 20%; CCL5 WT, percentage of level in untreated cells [3, 14]: 0%; CCL20 WT, percentage of level in untreated cells [3, 14]: 3%; CCL5 WT, percentage of level in untreated cells [3, 15]: 11%; CCL20 WT, percentage of level in untreated cells [3, 15]: 2%; IC50 [3, 16]: 0.59 µM; IC50 [3, 17]: 0.167 µM
5 | COc1cc(N)c(Cl)cc1C(=O)NCC1(Nc2cccc(OC(F)(F)F)c2)CCCCCC1 [F, 4-amino-5-chloro-2-methoxy-N-((1-((3-(trifluoromethoxy)phenyl)amino)cycloheptyl)methyl)benzamide] | 0% | 24% | – | – | < 0.01 µM | < 0.01 µM | 0% | – | – | – | 12% | – | – | – | – | – | – | – | – | – | activity at 25 µM [2, 4]: 0%; activity at 25 µM [2, 5]: 29%; CCL5 WT, percentage of level in untreated cells [3, 14]: 0%; CCL20 WT, percentage of level in untreated cells [3, 14]: 7%; CCL5 WT, percentage of level in untreated cells [3, 15]: 9%; CCL20 WT, percentage of level in untreated cells [3, 15]: 10%; IC50 [3, 16]: 0.09 µM; IC50 [3, 17]: 0.129 µM
